These results are taken from patent US9067930B2, “2-oxo-piperidinyl derivatives” (UCB Pharma, S.A., priority 2011, dated 2015).

Each structure is given as a SMILES string.

The subject of one data set is CGRP release. As to conditions: after electrical stimulation of the trigeminal ganglion; cited from earlier work.
In data set [1] the test system is dural protein extravasation induced by electrical stimulation of the trigeminal ganglion. Briefly: Plasma protein extravasation (PPE) / dural extravasation model of migraine. Type of data set: in vivo. As to conditions: rat. The text has this:
5-HT7 antagonists are expected to have efficacy in the prophylactic (and potentially acute) treatment of migraine by: • 1) Preventing serotonin-induced vasodilatation of cranial blood vessels (Matthys, A., et al., Role of the 5-HT7 receptor in the central nervous system: from current status to future perspectives. Molecular Neurobiology, 2011; Leopoldo, M., et al., Serotonin 5-HT7 receptor agents: Structure-activity relationships and potential therapeutic applications in central nervous system disorders. Pharmacology & Therapeutics, 2011, 129, 120-148; Hedlund, P. B., The 5-HT7 receptor and disorders of the nervous system: an overview. Psychopharmacology, 2009, 206, 345-354). Contrary to the triptans, 5-HT7 antagonists would only reverse a pre-existing vasodilatation, without producing vasoconstriction by themselves. This would make 5-HT7 antagonists, in contrast to triptans, compatible with chronic use and therefore with prophylactic treatment. • 2) By inhibiting peripheral and central sensitization. […] In this rat model of migraine, dural protein extravasation is induced by electrical stimulation of the trigeminal ganglion. […]
The level of fluorescence in dura maters ipsi- and contra-lateral to the trigeminal ganglia stimulation is quantified with a digital camera (Hamamatsu C4742-98 filter for FITC objective Nikon 2.8×) and analysis software (WIT5.3, Logical vision).

With `CC1CCN(CC[C@H]2CCCN2S(=O)(=O)c2cccc(O)c2)CC1` [SB-269970], the “human coronary artery contraction” value with human coronary artery is recorded as “does not induce human coronary artery contraction”. The “release of CGRP” value in the data set on CGRP release is “inhibits the release of CGRP”. Also, the “inhibition of neurogenic inflammation / reduction of protein extravasation” value in data set [1] is given as “Inhibition of neurogenic inflammation”.
